Where two headings read alike, the source gives them in different places. Where a SMILES comes first, the peptide text is derived from it. [ ]: non-standard residue; d: D form. Arg(Me) = CNC(=N)NCCC[C@H](N)C(=O)O; Hyp = O=C(O)[C@@H]1C[C@@H](O)CN1; azaGly = NNC(=O)O
Experiments:
[1] = Single dose PK, phase 1, healthy Japanese men; format: in vivo, human; conditions: for AUC(0-inf) / CL/F / Cmax / half-life / Tmax / dose excreted: male, human; for AUC(0-inf) / CL/F / Cmax / half-life / Tmax: plasma; for dose excreted: urine
Experimental: Thirty-seven healthy Japanese male subjects aged 50 to 74 years were enrolled into nine cohorts. Subjects enrolled in the first […] cohorts received 0.001, 0.004, 0.01, 0.04, 0.1, 0.25 or 0.5 mg of API-MA or placebo by single SC bolus. In the 0.001 mg cohort, 3 subjects received API-MA and two received placebo. In the remaining cohorts, 3 subjects received API-MA and one received placebo. Subjects enrolled in the eighth and ninth cohorts received 0.25 or 0.5 mg of API-MA or placebo by single 2-hour SC infusion. In both cohorts, 3 subjects received API-MA and one received placebo. The plasma PK analysis set consisted of 31 subjects (bolus cohorts: 25; infusion cohorts: 6), and the urine PK analysis set consisted of 35 subjects (bolus cohorts: 27; infusion cohorts: 8).
To measure urinary excretion of API-MA, urine specimens were collected at the following nominal times: predose, 0 to 4, 4 to 8, 8 to 12, 12 to 24, 24 to 36, 36 to 48 and 48 to 72 hours postdose.

serum LH and FSH = assay: Single dose pharmacodynamics (LH, FSH), Japanese men; format: in vivo, human; conditions: single dose 0.001 to 0.5 mg
Experimental: In the phase 1 clinical study of API-MA, subjects enrolled in the first seven cohorts received single SC bolus doses of 0.001, 0.004, 0.01, 0.04, 0.1, 0.25 or 0.5 mg of API-MA or placebo. Subjects enrolled in the eighth and ninth cohorts received single SC infusion doses of 0.25 or 0.5 mg of API-MA or placebo. The pharmacodynamics of the following hormones were assessed: LH, FSH, dihydroepiandrosterone sulfate (DHEA-S), growth hormone (GH), prolactin (PRL), thyroid-stimulating hormone (TSH), and adrenocorticotropic hormone (ACTH). The pharmacodynamic analysis set consisted of 37 subjects (bolus cohorts: 29; infusion cohorts: 8). […] In addition, blood specimens were collected for the measurement of LH and FSH on the day prior to dosing with API-MA. The time courses of mean serum LH concentrations following a single SC bolus of API-MA at doses ranging from 0.001 mg to 0.5 mg are shown in FIG. 6. The LH concentrations peaked between 12 and 24 hours and generally returned to baseline by 72 hours postdose. The magnitudes and durations of the LH concentration increases were similar across the dose range, 0.001 to 0.5 mg. The LH time courses were similar following a single 2-hour SC infusion of API-MA (data not shown).

[2] = rat, in vivo; cited from earlier work
serum LH, FSH, E2 = assay: Physiological effects in healthy women, follicular phase (Example 11, Part 1); format: in vivo, human
Excerpt: The study population included healthy women, aged 18-35 years, with BMI 18-30 kg/m^2, no medical problems and not taking any medications or hormonal contraception. Three healthy, female subjects were selected and randomized and received a single dose of each of the three study regimens noted below (one regimen per study period). All women were scheduled for three Study D1 Visits (each during the follicular phase of the menstrual cycle). […] The order in which a subject receives one of the three study regimens was determined by a randomization matrix.
The study included a screening visit to collect participants' full medical history and to conduct a general medical examination and blood testing. The three study periods each consisted of three planned study visits per study period (excluding screening and follow-up). Study Day 1 (SD1) Visit of each study period occurred during the follicular phase of the menstrual cycle (days 1-4), and the SD2 and SD3 Visits occurred at 24- and 48-hrs post-dose, respectively (FIG. 14). A follow-up phone call happened 7-10 days post-dose in each study period.
Immediately following dosing, serum LH, FSH, E2 (oestradiol), P (progesterone) and SHBG levels were assessed at 30 minute intervals for up to 14 hours (FIGS. 15A-15C, 16A-16C, 17, 18, 19, 20A, and 20B). These PD variables were also assessed at 24 (Study Day 2) and 48 hours (Study Day 3) post-dose. SHBG changes less rapidly and was measured every 3 hours to reduce blood volume.
Up to 3 mL of blood volume were required for measurement of serum reproductive hormone levels (LH, FSH, E2 and P). Blood samples for serum analysis were collected in plain Vacutainer tubes (Beckton Dickson, Franklin Lakes, N.J., USA), and spun after clotting (˜1 hour at room temperature) for 10 minutes at 3000 rpm. Serum was then stored in a locked freezer at −20° C. until assay of serum reproductive hormone levels.

[3] = sc, 0.001 mg, single SC bolus 0.001 mg, mean
[4] = sc, 0.004 mg, single SC bolus 0.004 mg, mean
[5] = sc, 0.01 mg, single SC bolus 0.01 mg, mean
[6] = sc, 0.04 mg, single SC bolus 0.04 mg, mean
[7] = sc, 0.1 mg, single SC bolus 0.1 mg, mean
[8] = sc, 0.25 mg, single 2-hour SC INF 0.25 mg (plasma N = 1)
[9] = sc, 0.25 mg, single SC bolus 0.25 mg, mean
[10] = sc, 0.5 mg, single 2-hour SC INF 0.5 mg, mean
[11] = sc, 0.5 mg, single SC bolus 0.5 mg, mean

For `CC(=O)O.CNC(=N)NCCC[C@H](NC(=O)[C@H](CC(C)C)NC(=O)NNC(=O)[C@H](Cc1ccccc1)NC(=O)[C@@H](NC(=O)[C@H](CC(N)=O)NC(=O)[C@@H]1C[C@@H](O)CN1C(=O)[C@@H](Cc1ccc(O)cc1)NC(C)=O)[C@@H](C)O)C(=O)N[C@@H](Cc1c[nH]c2ccccc12)C(N)=O` [API-MA, 2-(N-Acetyl-D-tyrosyl-trans-4-hydroxy-L-prolyl-Lasparaginyl-L-threonyl-L-phenylalanyl)-hydrazinocarbonyl-L-leucyl-Nω-methyl-L-arginyl-L-tryptophanamide monoacetate] (Ac-[dY][Hyp]NTF[azaGly]L[Arg(Me)]W-NH2), the “Time by which urinary excretion was essentially complete” value ([1]; cumulative urinary excretion) was at most 24 h, the AUC(0-inf) [1, 3] was 0.0541 ng·h/mL and the CL/F [1, 3] was 310 mL/min. It also gave a Cmax [1, 3] of 0.0201 ng/mL, a half-life ([1]; sc, 0.001 mg, single SC bolus 0.001 mg, mean, read-out: T½ (converted)) of 1.59 h and a Tmax ([1]; sc, 0.001 mg, single SC bolus 0.001 mg, read-out: Tmax, median (range)) of 0.5 h. The AUC(0-inf) [1, 4] was 0.205 ng·h/mL, the CL/F [1, 4] was 330 mL/min and the Cmax [1, 4] was 0.00617 ng/mL. For the same compound, the half-life ([1]; sc, 0.004 mg, single SC bolus 0.004 mg, mean, read-out: T½ (converted)) was 1.91 h, the Tmax ([1]; sc, 0.004 mg, single SC bolus 0.004 mg, read-out: Tmax, median (range)) was 0.5 h and the AUC(0-inf) [1, 5] was 0.671 ng·h/mL. For the same compound, the CL/F [1, 5] was 250 mL/min, the Cmax [1, 5] was 0.221 ng/mL and the half-life ([1]; sc, 0.01 mg, single SC bolus 0.01 mg, mean, read-out: T½ (converted)) was 1.82 h. For the same compound, the Tmax ([1]; sc, 0.01 mg, single SC bolus 0.01 mg, read-out: Tmax, median (range)) was 0.5 h, the AUC(0-inf) [1, 6] was 2.61 ng·h/mL and the CL/F [1, 6] was 278 mL/min. It also gave a Cmax [1, 6] of 0.966 ng/mL, a half-life ([1]; sc, 0.04 mg, single SC bolus 0.04 mg, mean, read-out: T½ (converted)) of 3.35 h and a Tmax ([1]; sc, 0.04 mg, single SC bolus 0.04 mg, read-out: Tmax, median (range)) of 0.5 h. For the same compound, the AUC(0-inf) [1, 7] was 5.79 ng·h/mL, the CL/F [1, 7] was 298 mL/min and the Cmax [1, 7] was 2.42 ng/mL. The half-life ([1]; sc, 0.1 mg, single SC bolus 0.1 mg, mean, read-out: T½ (converted)) was 3.58 h, the Tmax ([1]; sc, 0.1 mg, single SC bolus 0.1 mg, read-out: Tmax, median (range)) was 0.375 h and the AUC(0-inf) [1, 8] was 13.3 ng·h/mL. The CL/F [1, 8] was 313 mL/min, the Cmax [1, 8] was 4.02 ng/mL and the Tmax ([1]; sc, 0.25 mg, single 2-hour SC INF 0.25 mg (plasma N = 1), read-out: Tmax, median (range)) was 2.25 h. It also gave a half-life ([1]; sc, 0.25 mg, single 2-hour SC INF 0.25 mg (plasma N = 1), read-out: T½ (converted)) of 3.77 h, an AUC(0-inf) [1, 9] of 18.3 ng·h/mL and a CL/F [1, 9] of 228 mL/min. The Cmax [1, 9] was 5.9 ng/mL, the half-life ([1]; sc, 0.25 mg, single SC bolus 0.25 mg, mean, read-out: T½ (converted)) was 4.09 h and the Tmax ([1]; sc, 0.25 mg, single SC bolus 0.25 mg, read-out: Tmax, median (range)) was 0.75 h. For the same compound, the AUC(0-inf) [1, 10] was 34.6 ng·h/mL, the CL/F [1, 10] was 243 mL/min and the Cmax [1, 10] was 8.23 ng/mL. It also gave a half-life ([1]; sc, 0.5 mg, single 2-hour SC INF 0.5 mg, mean, read-out: T½ (converted)) of 4.02 h, a Tmax ([1]; sc, 0.5 mg, single 2-hour SC INF 0.5 mg, read-out: Tmax, median (range)) of 2.5 h and an AUC(0-inf) [1, 11] of 30 ng·h/mL. It also gave a CL/F [1, 11] of 282 mL/min, a Cmax [1, 11] of 9.05 ng/mL and a half-life ([1]; sc, 0.5 mg, single SC bolus 0.5 mg, mean, read-out: T½ (converted)) of 4.27 h. For the same compound, the Tmax ([1]; sc, 0.5 mg, single SC bolus 0.5 mg, read-out: Tmax, median (range)) was 0.5 h, the Tmax ([1]; sc, SC bolus, read-out: Median Tmax, range over cohorts) was 0.375 to 0.75 h and the half-life ([1]; subcutaneous, 0.5 mg, 0.25 and 0.5 mg, read-out: Mean T1/2 at the highest doses) was 3.77 to 4.27 h. The dose excreted ([1]; sc, 0.001 mg, single SC bolus 0.001 mg, mean, read-out: Fe (urine)) was 0%, the dose excreted ([1]; sc, 0.004 mg, single SC bolus 0.004 mg, mean, read-out: Fe (urine)) was 6.16% and the dose excreted ([1]; sc, 0.01 mg, single SC bolus 0.01 mg, mean, read-out: Fe (urine)) was 5.4%. The dose excreted ([1]; sc, 0.04 mg, single SC bolus 0.04 mg, mean, read-out: Fe (urine)) was 4.24%, the dose excreted ([1]; sc, 0.1 mg, single SC bolus 0.1 mg, mean, read-out: Fe (urine)) was 5.2% and the dose excreted ([1]; sc, 0.25 mg, single 2-hour SC INF 0.25 mg, mean, read-out: Fe (urine)) was 6.21%. For the same compound, the dose excreted ([1]; sc, 0.25 mg, single SC bolus 0.25 mg, mean, read-out: Fe (urine)) was 7.1%, the dose excreted ([1]; sc, 0.5 mg, single 2-hour SC INF 0.5 mg, mean, read-out: Fe (urine)) was 5.22% and the dose excreted ([1]; sc, 0.5 mg, single SC bolus 0.5 mg, mean, read-out: Fe (urine)) was 6.33%. The dose excreted ([1]; sc, 0.004 to 0.5 mg, bolus and infusion, read-out: Mean Fe, range over cohorts) was 4.24 to 7.1%, the API-MA in urine ([1]; single SC bolus 0.001 mg) was “No API-MA was detected” and the “Time of FSH return to baseline / predose level” value (serum LH and FSH) was at most 72 h. The “Time of LH return to baseline” value (serum LH and FSH) was at most 72 h.

For `CNC(=N)NCCC[C@H](NC(=O)[C@H](CC(C)C)NC(=O)NNC(=O)[C@H](Cc1ccccc1)NC(=O)[C@@H](NC(=O)[C@H](CC(N)=O)NC(=O)[C@@H]1C[C@@H](O)CN1C(=O)[C@@H](Cc1ccc(O)cc1)NC(C)=O)[C@@H](C)O)C(=O)N[C@@H](Cc1c[nH]c2ccccc12)C(N)=O` [Compound 1, 2-(N-Acetyl-D-tyrosyl-trans-4-hydroxy-L-prolyl-L-asparaginyl-L-threonyl-L-phenylalanyl)-hydrazinocarbonyl-L-leucyl-Nω-methyl-L-arginyl-L-tryptophanamide] (Ac-[dY][Hyp]NTF[azaGly]L[Arg(Me)]W-NH2), the bioavailability [2] is given as 66.3%, the FSH response (serum LH, FSH, E2) is given as “very low compared to the LH response” and the “Time of peak serum LH post-dosing” value (serum LH, FSH, E2; 0.003 nmol/kg SC) is given as 14 to 36 h. The “Duration of LH surge” value (serum LH, FSH, E2; 0.03 nmol/kg SC) was “approximately 14 hours”, the “End of LH surge after administration” value (serum LH, FSH, E2; 0.03 nmol/kg SC) was 28 h and the “Time of peak serum LH after administration” value (serum LH, FSH, E2; 0.03 nmol/kg SC) was 18 to 20 h.
